Reference: patent publication US20090105221A1, “MUSCARINIC RECEPTOR ANTAGONISTS” (RANBAXY LABORATORIES LIMITED, priority 2004, published 2009)

melting point: 85.2 °C
Compound: O=C(NCC1C2CCC1CNC2)C(O)(c1ccccc1)c1ccccc1 (stereo not shown)
